Results on two substances are retold here after patent US20110064669A1, “USE OF GALANIN IN A METHOD OF TREATING NEURODEGENERATIVE DISEASES OR CONDITIONS” (HOWARD FLOREY INSTITUTE OF EXPERIMENTAL PHYSIOLOGY AND …, priority 2007, published 2011).

The test system of assay [1] is post-mitotic OC (primary rat OPC matured by PDGF withdrawal). Nature of the assay: Oligodendrocyte survival assay (calcein / ethidium homodimer live-dead count). Type of assay: cell-based. The protocol:
Whether or not galanin itself is a survival factor for oligodendrocytes in vitro was determined. Primary rat OPC in culture were matured for 48 hours by PDGF withdrawal in the presence of insulin, passaged into poly-1-lysine coated 24 well-plates at a density of 200 cells/well in Sato medium alone or Sato medium supplemented with various concentrations of recombinant rat galanin (Peninsula Biosciences).
Twenty wells/condition were counted in each survival assay and results were verified in four independent experiments using separate batches of primary cells. All counts were performed by an investigator blinded to the experimental condition.

For assay [2], the system named is cultured primary oligodendrocytes. Nature of the assay: Affymetrix gene chip analysis of LIF-induced mRNA in cultured primary oligodendrocytes. Type of assay: cell-based, rat. The note with it: 8 hours of LIF exposure, versus NT3, insulin or Sato only. Here is the method:
In order to assess mRNA induction promoted by LIF signaling in oligodendrocytes, an Affymetrix array analysis was conducted of cultured primary oligodendrocytes. A2B5 positive, O1 negative oligodendrocyte progenitor cells were isolated by sequential immunopanning from P6 rat optic nerves. After expansion in culture (2 passages, 11 days) in Sato medium in the presence of insulin, platelet-derived growth factor (PDGF) and neurotrophin-3 (NT3) (no CNTF or LIF), the cells were matured by 48 hours of PDGF withdrawal. The NT3 was also withdrawn for this time-period but insulin was maintained. In order to determine gene expression profiles induced by various cytokines, the matured cells were then exposed to one of four conditions for 8 hours: Sato alone, Sato plus insulin, Sato plus LIF, Sato plus NT3. Subsequently, the cells were harvested, mRNA isolated and processed for Affymetrix gene chip hybridization (Rat 230 2.0). The experiments were conducted as independent triplicates. […] The 965 genes identified were subjected to cluster analysis. Distinct clusters of genes were regulated by insulin and LIF (FIG. 9) but not NT-3.

In assay [3] the test system is oligodendrocyte progenitors or mature oligodendrocytes. Nature of the assay: Real-time PCR confirmation of LIF-regulated genes in oligodendrocyte progenitors and mature oligodendrocytes. The note with it: LIF for 5 or 24 hours. Type of assay: cell-based, rat. Here is the method:
For each of these six regulated genes, independent confirmation was conducted by real-time PCR. Either dividing oligodendrocyte progenitors or mature oligodendrocytes (as above) were exposed to LIF for either 5 or 24 hours, and measured gene induction against baseline (independent baseline cultures for each comparison). […] FIG. 10 illustrates typical results for secretogranin 2 and galanin.
Background: In qPCR the cycle at which signal appears reflects the starting amount.

Assay [4] deals with mature oligodendrocytes. Put plainly: Western blot of galanin in concentrated media of mature oligodendrocytes. Type of assay: cell-based, rat. The following applies: LIF 100 ng/ml, 48 hours, SATO plus insulin. Here is the method: (§1) Translation of regulated cytokine and neuropeptide mRNA species into peptides/proteins was confirmed. Mature oligodendrocytes (as above) were plated in 10 cm dishes in SATO plus insulin and added LIF (100 ng/ml) to half the dishes for 48 hours. […] LIF-dependent galanin production in concentrated media from the OC cell line CG4 (FIG. 11) was confirmed. […] All Western blots were performed in triplicate from independent experiments. The LIF-dependent induction of a secretory phenotype in OC was confirmed by galanin immunocytochemistry of OC cultured in insulin +/− LIF for 48 hours (FIG. 13).
In general terms: In western blotting, separated proteins are transferred to a membrane and probed.

The subject of assay [5] is cultured primary rat astrocytes or an n-mye immortalized astrocytic cell line. Put plainly: Galanin production in response to LIF in astrocytes. Type of assay: cell-based.
For assay [6], the system named is OC. Put plainly: Galanin immunocytochemistry of OC cultured in insulin +/- LIF. Type of assay: cell-based, rat. The following applies: LIF-treated versus untreated OC, 48 hours. Here is the method:
as §1

Assay [7] has as its system EAE. The following applies: cited from earlier work.
In assay [8] the test system is cuprizone demyelination. The note with it: exogenous LIF, wild-type litter mates; cited from earlier work.

Entries after “also recorded” stand apart in the source; their conditions may differ. No end group written: not given here.

With “galanin (GWTLNSAGYLLGPHAIDNHRSFSDKHGLT; ends and bridges not checked; UniProt P10683 33-61, looked up) [29 amino acid neuropeptide; recombinant rat galanin (Peninsula Biosciences) used in the survival assay]”, the “OC survival in vitro” value is on record as “highly significant survival effect; also recorded: increased” in assay [1] (1 nM galanin in Sato medium, versus Sato alone (nil)) and “abolished; also recorded: No other galanin concentration is significantly different from baseline” in assay [1] (higher galanin concentrations (other than 1 nM), versus baseline (nil)). Moreover, the “OC survival, galanin plus LIF versus galanin alone (synergy)” value in assay [1] (Sato medium) is reported as “not synergistic with LIF”.
Regarding leukemia inhibitory factor [LIF], the “regulation of genes (secretogranin II, cytokines/neuropeptides incl. galanin) on gene chip” value in assay [2] is on record as “significantly regulated”. For the same substance, the “gene induction against baseline at the RNA level (six genes incl. secretogranin 2 and galanin)” value in assay [3] is “confirmed to be regulated”. Besides, in assay [4], the “galanin production in concentrated media” value is reported as “Induction of galanin production was observed”. In assay [5], the “induction of galanin production” value was “not observed”. In assay [6], the “galanin staining of OC” value is given as “intense polar galanin staining”. The “reduction in density of oligodendrocytes within the spinal cord in established EAE” value in assay [7] (MBP-lacZ mice, LIF administration) was “fully rescued this phenotype”. In assay [7] (recombinant LIF administration), the EAE severity entry is reported as “reduces EAE severity”. In addition, in assay [8], the severity of demyelination entry is “reduce the severity of demyelination”.
